# Read-outs that look alike come from different tables or passages of the source.
# Tests used:
# human CB2 receptors = target: T1, human CB2 receptors (Homo sapiens, UniProt P34972); test: CB2 radioligand binding assay ([3H]CP-55,940 competition)
# T1 construct: expressed in transfected cells
# Procedure: To determine the selectivity (Ki) of the compounds of the present application for CB2 receptors relative to CB1 receptors, radioligand binding assays are performed, which are described herein.
# For CB2 radioligand binding assays, HEK293 cells stably expressing human CB2 receptors were grown until a confluent monolayer was formed. Briefly, the cells were harvested and homogenized in TE buffer (50 mM Tris-HCl, 1 mM MgCl2, and 1 mM EDTA) using a polytron for 2×10 second bursts in the presence of protease inhibitors, followed by centrifugation at 45,000×g for 20 minutes. The final membrane pellet was re-homogenized in storage buffer (50 mM Tris-HCl, 1 mM MgCl2, and 1 mM EDTA and 10% sucrose) and frozen at −78° C. until used. Saturation binding reactions were initiated by the addition of membrane preparation (protein concentration of 5 μg/well for human CB2) into wells of a deep well plate containing [^3H]CP-55,940 (120 Ci/mmol, a nonselective CB agonist commercially available from Tocris) in assay buffer (50 mM Tris, 2.5 mM EDTA, 5 mM MgCl2, and 0.5 mg/mL fatty acid free BSA, pH 7.4). After 90 min incubation at 30° C., binding reaction was terminated by the addition of 300 μl/well of cold assay buffer followed by rapid vacuum filtration through a UniFilter-96 GF/C filter plates (pre-soaked in 1 mg/mL BSA for 2 hours). The bound activity was counted in a TopCount using Microscint-20. […]
# [1] = tested on: spontaneous locomotor activity; test: Measurement of locomotor activity (open field, horizontal activity); format: in vivo; settings: rat; for horizontal locomotor activity, agonist after rimonabant: 30 μmol/kg i.p., rimonabant 30 μmol/kg i.p. 15 min before
# Procedure: Adverse effects may also be determined by the Measurement of Locomotor Activity. Spontaneous activity is assessed in an open-field environment (42 (length)×42 (base)×40 cm (height); Piper Plastics, Libertyville, Ill.) situated inside Versamax/Digiscan monitors, each equipped with infrared sensors (AccuScan Instruments, Inc., Columbus, Ohio) in a dimly illuminated test room. Following administration of test compounds or vehicle control, rats are individually placed into the test chambers and horizontal (locomotion) activity is recorded for 30 min. A reduction in horizontal motor activity for a test compound compared to the effect of vehicle is a measure of adverse effects; the greater the reduction in activity, the greater the adverse effect. Data is analyzed by ANOVA followed by Fisher's Protected Least significant difference (PLSD) analysis as a post hoc comparison (JMP statistic database; SAS Institute, Inc., Cary, N.C.). A p<0.05 was considered significant.
# These effects also indicate that the reduction in locomotor activity by CB2 agonist B results from its residual activation of the CB1 receptor.
# Using the locomotor activity assay, the effects of CB2 agonist A were evaluated after the administration of vehicle or the CB1 antagonist rimonabant. This effect was compared with the administration of vehicle after the administration of vehicle or the CB1 antagonist rimonabant. A first dose, consisting of CB1 antagonist rimonabant (30 μmol/kg i.p.) or a vehicle (5% DMSO/PEG), was administered 15 minutes before a second dose, consisting of administration of CB2 agonist A (30 μmol/kg i.p.) or vehicle. Locomotor testing was conducted 30 minutes after administration of the second dose, either CB2 agonist A or vehicle. […] CB2 agonist A administered after vehicle decreased horizontal locomotor activity by 91%.
# [2] = tested on: skin incision model of postoperative pain; test: Skin incision model of postoperative pain (tactile allodynia, von Frey); format: in vivo; settings: rat; for analgesia (tactile allodynia), agonist after rimonabant: 30 μmol/kg i.p. given 15 min after rimonabant 30 μmol/kg i.p.; for withdrawal threshold for the incisional paw (allodynia): 10 and 30 μmol/kg i.p., two hours after surgery
# Text: Adult male Sprague-Dawley rats (250-300 g body weight, Charles River Laboratories, Portage, Mich.) were used. Animal handling and experimental protocols were approved by the Institutional Animal Care and Use Committee (IACUC) at Abbott Laboratories. For all surgical procedures, animals were maintained under halothane anesthesia (4% to induce, 2% to maintain), and the incision sites were sterilized using a 10% povidone-iodine solution prior to and after surgeries.
# A skin incision model of postoperative pain was produced using the procedures described in Brennan et al., 1996, Pain, 64, 493. All rats were anesthetized with isoflurane delivered via a nose cone. Right hind paw incision was performed following sterilization procedures. The plantar aspect of the […] hind paw was placed through a hole in a sterile plastic drape. A 1-cm longitudinal incision was made through the skin and fascia of the plantar aspect of the hind paw, starting 0.5 cm from the proximal edge of the heel and extending towards the toes, the plantar muscle was elevated and incised longitudinally leaving the muscle origin and insertion points intact. The skin was then closed with two mattress sutures (5-0 nylon). After surgery, animals were then allowed to recover for 2 hours, at which time tactile allodynia was assessed as described below. To evaluate the anti-nociceptive effects, animals were i.p. administered vehicle or test compound 90 minutes following skin incision and tactile allodynia was typically assessed 30 minutes after compound administration.
# Tactile allodynia was measured using calibrated von Frey filaments (Stoelting, Wood Dale, Ill.) as described in Chaplan, S. R., F. W. Bach, J. W. Porgrel, J. M. Chung and T. L. Yaksh, 1994, Quantitative assessment of tactile allodynia in the rat paw, J. Neurosci. Methods, 53, 55. Rats were placed into inverted individual plastic cage (20×12.5×20 cm) on top of a suspended wire mesh grid, and acclimated to the test chambers for 20 minutes. The von Frey filaments were applied perpendicularly from underneath the cage through openings in the wire mesh floor directly to an area within 1-3 mm (immediately adjacent) of the incision, and then held in this position for approximately 8 seconds with enough force to cause a slight bend in the filament. Positive responses included an abrupt withdrawal of the hind paw from the stimulus, or flinching behavior immediately following removal of the stimulus. A 50% withdrawal threshold was determined using an up-down procedure as described in Dixon, W. J., 1980, Efficient analysis of experimental observations, Ann. Rev. Pharmacol. Toxicol., 20, 441. The effect on paw withdrawal latency of test compounds compared to vehicle control represents the ability of the test compound to reduce allodynia. An increase in the paw withdrawal latency represents an anti-allodynic effect (i.e., a decrease in pain).
# Using the skin incisional model of postoperative pain, the effects of compound A, CB2 agonist (Z)—N-(5-tert-butyl-3-butylthiazol-2(3H)-ylidene)-5-chloro-2-methoxybenzamide, on allodynia was assessed two hours after surgery.
# Using the skin incisional model of postoperative pain, the effects of CB2 agonist A were evaluated after the administration of vehicle or the CB1 antagonist rimonabant. This effect was compared with the administration of vehicle after the administration of vehicle or the CB1 antagonist rimonabant. A first dose, consisting of CB1 antagonist rimonabant (30 μmol/kg i.p.) or a vehicle (5% DMSO/PEG), was administered 15 minutes before a second dose, consisting of administration of CB2 agonist A (30 μmol/kg i.p.) or vehicle. Allodynia testing was conducted 30 minutes after administration of the second dose, either CB2 agonist A or vehicle.
# T1 sequence (P34972 whole entry): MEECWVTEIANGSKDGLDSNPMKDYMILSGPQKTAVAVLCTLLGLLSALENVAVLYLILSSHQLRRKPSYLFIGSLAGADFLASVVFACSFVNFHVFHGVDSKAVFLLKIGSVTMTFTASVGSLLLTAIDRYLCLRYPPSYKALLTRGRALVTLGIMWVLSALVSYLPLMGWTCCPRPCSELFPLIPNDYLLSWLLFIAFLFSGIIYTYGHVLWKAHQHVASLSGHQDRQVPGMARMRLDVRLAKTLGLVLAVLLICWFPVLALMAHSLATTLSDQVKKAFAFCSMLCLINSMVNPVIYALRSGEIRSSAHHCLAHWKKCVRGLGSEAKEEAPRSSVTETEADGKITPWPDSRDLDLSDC
Structure (SMILES),Ki (human CB2 receptors) [nM],"decrease of horizontal locomotor activity, agonist after vehicle ([1]; 30 μmol/kg i.p. after vehicle, tested 30 min after second dose) [%]","horizontal locomotor activity, agonist after rimonabant [1]","horizontal locomotor activity, agonist after rimonabant ([1]; listed as CB2 agonist A)","analgesia (tactile allodynia), agonist after rimonabant ([2]; tested 30 min after second dose)","analgesia (tactile allodynia), agonist after rimonabant ([2]; tested 30 min after second dose, listed as CB2 agonist A)","analgesia (tactile allodynia), agonist after vehicle ([2]; 30 μmol/kg i.p. given 15 min after vehicle, tested 30 min after second dose)",withdrawal threshold for the incisional paw (allodynia) [2],"Ki (human CB2 receptors; HEK293 membranes expressing human CB2, 0.5 nM [3H]CP-55,940, read-out: Ki for CB2 receptors) [nM]","spontaneous locomotor activity, agonist alone ([1]; 30 and 45 μmol/kg i.p., tested 30 min after administration)","spontaneous locomotor activity, agonist after rimonabant ([1]; rimonabant 30 μmol/kg i.p. 15 min before CB2 agonist B)"
"CCCCn1cc(C(C)(C)C)s/c1=N\C(=O)c1cc(Cl)ccc1OC [compound A, (Z)—N-(5-tert-butyl-3-butylthiazol-2(3H)-ylidene)-5-chloro-2-methoxybenzamide]",1.8,91,much reduced side effects,able to block said decrease,equivalent efficacy,able to induce analgesia,able to induce analgesia,recovered,–,–,–
"COCCn1c(C)c(C)s/c1=N\C(=O)C1C(C)(C)C1(C)C [compound B, (Z)—N-(3-(2-methoxyethyl)-4,5-dimethylthiazol-2(3H)-ylidene)-2,2,3,3-tetramethylcyclopropanecarboxamide]",–,–,–,–,–,–,–,re-establishing withdrawal threshold,0.6,significantly reduces spontaneous locomotor activity,reduction in locomotor activity was eliminated
